# System: hair growth
# Experiment: Rat Hair Growth Test (topical application to clipped skin, cumulative hair weight)
# Type: in vivo, male albino Wistar rats
# Protocol: The effect of compounds on hair growth was assessed using male albino Wistar rats as an animal model. The rats were chosen from as few litters as possible and were each approximately 42 days of age at the start of the test. Each rat was housed individually to prevent licking.
# In each comparison, 10 rats were used in each group and hair growth was assessed as follows:
# A small patch of normal skin (4cm x 4cm) on the upper back of each rat was clipped at the start and 0.3 ml of a hair growth stimulant composition (or a control) applied topically twice daily and once on Saturdays and Sundays to each clipped area. The concentration of test compound in the composition was chosen from 0.01 to 20% by weight.
# In any case, this concentration will lie within the range of from 0.01 to 20% by weight as stipulated above.
# Hair was clipped from the area of the patch twice weekly, collected and weighed at each time point over a standard period of 3 months, and cumulative hair weight calculated. […] A positive response, i.e. an increase of at least 10% by weight of hair after 3 months treatment, compared with a control indicates the potential of the test compound to prevent hair loss and/or reverse baldness in human subjects.
# In this example, the effect of topical application of N-acetyl glycine is shown. […]
smiles,measurement,setting,value
CC(=O)NCC(=O)O [N-acetyl glycine],increase in hair growth,"10% (w/v) N-acetyl glycine vs control (distilled water, pH 4.2), after 58 days, statistically significant",23%
same,"Mean Cumulative Hair Weight (mg) ± sd, after 58 days","10% (w/v) solution in distilled water adjusted to pH 4.2 with potassium hydroxide, topical, 0.3 ml twice daily, 58 days, control 505.9 ± 103.1, p =0.02 vs control",622.8 ± 101.11 mg

# From patent publication EP0415598A1, “Cosmetic composition” (UNILEVER PLC, priority 1989, dated 1991)
